Each molecule was assayed against T1, protein kinase D1 (PKD1) (Homo sapiens, UniProt Q15139) (assay: PKD1 TR-FRET (LANCE) kinase assay). Conditions: full length wild-type enzyme, 20 μM ATP, syntide-2 substrate; read-out: Inhibitory Activity PKD1.
T1 construct: This assay is performed with full length wild-type enzyme that is expressed and purified from Sf9 insect cells; made in house; host or cells: Sf9 insect cells
T1 sequence (Q15139 1-912): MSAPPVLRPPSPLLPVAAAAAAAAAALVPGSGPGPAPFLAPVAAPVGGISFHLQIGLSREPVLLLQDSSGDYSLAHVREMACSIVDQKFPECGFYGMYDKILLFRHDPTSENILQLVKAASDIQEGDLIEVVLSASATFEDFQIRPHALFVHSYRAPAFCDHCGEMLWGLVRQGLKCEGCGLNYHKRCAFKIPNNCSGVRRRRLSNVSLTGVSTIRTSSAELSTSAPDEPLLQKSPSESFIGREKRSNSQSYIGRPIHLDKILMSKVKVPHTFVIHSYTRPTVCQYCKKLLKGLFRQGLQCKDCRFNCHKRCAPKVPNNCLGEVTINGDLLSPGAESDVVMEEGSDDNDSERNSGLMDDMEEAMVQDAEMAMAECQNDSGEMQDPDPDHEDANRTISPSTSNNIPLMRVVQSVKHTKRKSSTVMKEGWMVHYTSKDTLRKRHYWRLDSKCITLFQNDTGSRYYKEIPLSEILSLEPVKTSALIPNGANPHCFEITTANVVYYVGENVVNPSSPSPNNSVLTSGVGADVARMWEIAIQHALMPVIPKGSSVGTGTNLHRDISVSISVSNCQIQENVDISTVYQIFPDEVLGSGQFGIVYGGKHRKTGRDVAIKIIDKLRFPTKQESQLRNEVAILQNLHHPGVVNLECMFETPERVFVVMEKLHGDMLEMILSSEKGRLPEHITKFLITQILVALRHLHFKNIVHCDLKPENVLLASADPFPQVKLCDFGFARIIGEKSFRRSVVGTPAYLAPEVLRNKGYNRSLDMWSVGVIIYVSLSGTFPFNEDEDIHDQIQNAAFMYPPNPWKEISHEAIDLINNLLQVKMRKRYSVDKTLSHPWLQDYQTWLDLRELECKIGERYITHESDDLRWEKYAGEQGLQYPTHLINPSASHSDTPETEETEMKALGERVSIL
Format: biochemical
Source text: The assay to measure protein kinase D1 (PKD1) activity is a time-resolved fluorescence resonance transfer (TR-FRET) assay using PerkinElmer's LANCE™ technology. In this case, a biotinylated syntide-2 peptide is used as the substrate in this reaction. Phosphorylation of the syntide-2 substrate is detected by a specific antibody that recognizes the phosphorylated peptide. A second fluorophore, APC, is conjugated to streptavidin that binds the biotinylated syntide-2 peptide. […] Therefore, when the europium labeled secondary antibody binds on the phosphorylated peptide, it is brought into close contact with the APC and excites this fluorophore.
This assay is performed with full length wild-type enzyme that is expressed and purified from Sf9 insect cells. The reaction buffer consists of 35 mM Tris-HCl pH7.5, 5 mM MgCl2, 0.02% Tween-20, 20 μM ATP, 1 mM DTT and 0.2 μg/mL PKD1 enzyme. The enzyme reaction is initiated by the addition of 2 μM syntide-2 peptide substrate and the reaction carried out for 50 minutes at room temperature. The reaction is stopped by a stop/detection Buffer consisting of 50 mM EDTA, 0.18 mg/mL rabbit polyclonal anti-phospho Syntide-2 antibody, 0.5 nM europium labeled anti-rabbit IgG and 10 nM streptavidin conjugated APC. […] IC50 values are calculated using an Activity Base (IDBS) software program.

Compared with `NC(=O)c1cc(-c2ccnc(NCc3ccccc3Cl)c2)nc(N2CCNCC2)c1` [2′-(2-Chlorobenzylamino-6-piperazin-1-yl-[2,4′]bipyridinyl-4-carboxylic acid amide], `NC(=O)c1cc(-c2ccnc(NCCc3ccc(O)cc3)c2)nc(N2CCNCC2)c1` [2′-[2-(4-Hydroxyphenyl)ethylamino]-6-piperazin-1-yl-[2,4′]bipyridinyl-4-carboxylic acid amide] is 12-fold lower in IC50: 25 nM for the first, 2 nM for the second.

Going from `NC(=O)c1cc(-c2ccnc(NC3CCCCC3)c2)nc(N2CCN3CCC[C@@H]3C2)c1` [2′-Cyclohexylamino-6-(R)-hexahydro-pyrrolo[1,2-a]pyrazin-2-yl-[2,4′]bipyridinyl-4-carboxylic acid amide] to `Nc1cc(-c2ccnc(NC3CCCCC3)c2)nc(N2CCNCC2)c1` [N*2′*-Cyclohexyl-6-piperazin-1-yl-[2,4′]bipyridinyl-4,2′-diamine], the IC50 falls from 35 nM to 10 nM (3.5-fold). The second is the more potent here.

`N#CCNC(=O)c1ccc(-c2ccnc(NC3CCCCC3)c2)nc1N1CCNCC1` [2′-Cyclohexylamino-6-piperazin-1-yl-[2,4′]bipyridinyl-5-carbonxylic acid cyanomethyl-amide] and `COC(=O)c1ccc(-c2ccnc(NC3CCCCC3)c2)nc1N1CCNCC1` [2′-Cyclohexylamino-6-piperazin-1-yl-[2,4′]bipyridinyl-5-carboxylic acid methyl ester] are within 1.5-fold of each other in IC50: 60 nM for the first, 83 nM for the second.

Going from `O=C1NCc2c1cc(-c1ccnc(NC3CCCCC3)c1)nc2N1CCn2cnnc2C1` [6-(2-Cyclohexylamino-pyridin-4yl)-4-(5,6-dihydro-8H-[1,2,4]triazolo[4,3-a]pyrazin-7-yl)-2,3-dihydro-pyrrolo[3,4-c]pyridin-1-one] to `c1cc(-c2cc(-c3nnco3)cc(N3CCNCC3)n2)cc(NC2CCCCC2)n1` [Cyclohexyl-(4-[1,3,4]oxadiazol-2-yl-6-piperazin-1-yl-[2,4′]bipyridinyl-2′-yl)-amine], the IC50 falls from 56 nM to 12 nM (4.7-fold).

Compared with `CS(=O)(=O)c1cc(-c2ccnc(NC3CCCCC3)c2)nc(N2CCNCC2)c1` [Cyclohexyl-(4-methanesulfonyl-6-piperazin-1-yl-[2,4′]bipyridinyl-2′-yl)-amine], `O=[N+]([O-])c1cc(-c2ccnc(NC3CCCCC3)c2)nc(N2CCNCC2)c1` [Cyclohexyl-(4-nitro-6-piperazin-1-yl-[2,4′]bipyridinyl-2′-yl)-amine] is 16-fold lower in IC50: 63 nM for the first, 4 nM for the second.

First: FC(F)(F)c1cc(-c2ccnc(NC3CCCCC3)c2)nc(N2CCNCC2)c1 [Cyclohexyl-(6-piperazin-1-yl-4-trifluoromethyl-[2,4′]bipyridinyl-2′-yl)amine]
Second: Fc1ccc(Nc2cc(-c3ccnc(NC4CCCCC4)c3)nc(N3CCNCC3)c2)cc1 [N*2′*-Cyclohexyl-N*4*-(4-fluoro-phenyl)-6-piperazin-1-yl-[2,4′]bipyridinyl-4,2′-diamine]
The IC50 of the first is 9.1-fold lower: 20 nM for the first, 182 nM for the second. The first is the more potent here.

Source: US20110092505A1, “ORGANIC COMPOUNDS” (priority 2008, published 2011)
